Literature values in patent publication US11833157B2, “Precipitation resistant small molecule drug formulations” (Xeris Pharmaceuticals, Inc., priority 2017, dated 2023).

Tested on: febrile seizures
Settings: short term diazepam prophylaxis at times of fever; 39% without

CN1C(=O)CN=C(c2ccccc2)c2cc(Cl)ccc21 [diazepam]
18 month recurrence rate: 12%
